This note sets out measurements from patent US20230340127A1, “METHODS AND COMPOSITIONS FOR CANCER TREATMENT BY INHIBITION OF FBXO44” (Sanford Burnham Prebys Medical Discovery Institute, priority 2022, published 2023).

The subject of the assay is MDA-MB-231 or 4T1 cells. The assay is described as follows: qRT-PCR of endogenous retroelements, IFN-α/β, ISGs and PD-L1 in F5446-treated cells. The settings on record: cancer cells (MDA-MB-231, 4T1), qRT-PCR (FIGS. 10F-10G). Type of assay: cell-based. As to the method: Quantitative (q)RT-PCR: total RNA was isolated using the RNeasy Plus Mini Kit (Qiagen no. 74134). cDNA was synthesized using qScript cDNA SuperMix (Quantabio no. 95048) following the manufacturer's instructions. qPCR reactions were performed using SYBR Select Master Mix (Thermo Fisher Scientific no. 4472908) and a Stratagene Mx3000P instrument (Agilent Technologies). Thermal cycling conditions included an initial denaturation step of 95° C. for 10 min and 40 cycles at 95° C. for 15 sec and 60° C. for 60 sec. Analyses were carried out in triplicate for each data point. The qPCR primers used for gene expression analysis of human REs and genes included MajSAT-[…] (SEQ ID NO: 1) and […] (SEQ ID NO: 2), mcBox-[…] (SEQ ID NO: 3) and […] (SEQ ID NO: 4), SATIII-[…] (SEQ ID NO: 5) and […] (SEQ ID NO: 6), Alu-[…] (SEQ ID NO: 7) and […] (SEQ ID NO: 8), L1 ORF1-TGGCCCCCACTCTCTTCT (SEQ ID NO: 18) and […] (SEQ ID NO: 19), L1 ORF2-[…] (SEQ ID NO: 20) and […] (SEQ ID NO: 21), L1 5′-UTR-AAGCAAGCCTGGGCAATG (SEQ ID NO: 22) and […] (SEQ ID NO: 23), HERV-E-[…] (SEQ ID NO: 24) and GCAGCCTAGGTCTCTGG (SEQ ID NO: 25), HERV-F-CCTCCAGTCACAACAACTC (SEQ ID NO: 26) and TATTGAAGAAGGCGGCTGG (SEQ ID NO: 27), HERV-K-[…] (SEQ ID NO: 28) and […] (SEQ ID NO: 29), ERVL-[…] (SEQ ID NO: 30) and […] (SEQ ID NO: 31), GAPDH-[…] (SEQ ID NO: 32) and […] (SEQ ID NO: 33), FBXO44-[…] (SEQ ID NO: 34) and […] (SEQ ID NO: 35), SUV39H1-[…] […]
For orientation: Real-time PCR tracks product formation cycle by cycle.

Regarding `COC(=O)c1cc2c(n1S(=O)(=O)c1ccc(Cl)cc1)C(=O)C(=O)c1[nH]cc(C(=O)OCc3ccccc3)c1-2` [F5446], the “expression of various REs and IFN signaling” value was “activated”.
